In patent US10662195B2, “Protein kinase conjugates and inhibitors” (Celgene Avilomics Research, Inc., priority 2009, dated 2020):

What was measured:
FAK = molecular target: T1, FAK (Homo sapiens, UniProt Q05397); test: FAK biochemical assay (OMNIA kinase assay, pre-activated FAK); details: FAK=15 nM, ATP=100 μM, 30 min pre-incubation
T1 construct: purchased Invitrogen (Madison, Wis.) M4446
Experimental: Activities of FAK inhibitors were assessed in an OMNIA® kinase assay (Invitrogen, Carlsbad, Calif.) using pre-activated FAK enzyme. Briefly, a 10× stock of pre-activated FAK enzyme (M4446) from Invitrogen (Madison, Wis.), 1.13×ATP (AS001A) and Y3-Sox conjugated peptide substrate (YP003A) were prepared in 1× kinase reaction buffer consisting of 20 mM Tris, pH 7.5, 5 mM MgCl2, 1 mM EGTA, 5 mM β-glycerophosphate, 5% glycerol (10× stock, KB002A) and 0.2 mM DTT (DS001A). 5 μL of enzyme were pre-incubated in a Corning (#3574) 384-well, white, non-binding surface microtiter plate (Corning, N.Y.) for 30 min at 27° C. with a 0.5 μL volume of 50% DMSO and serially diluted compounds prepared in 50% DMSO. Kinase reactions were started with the addition of 45 μL of ATP/Y3-Sox peptide substrate mix and monitored every 30-90 seconds for 60 minutes at λex360/λem485 in a Synergy^4 plate reader from BioTek (Winooski, Vt.). […] Initial velocity (0 minutes to ˜30 minutes) from each reaction was determined from the slope of a plot of relative fluorescence units vs time (minutes) and then plotted against inhibitor concentration to estimate IC50 from log [Inhibitor] vs Response, Variable Slope model in GraphPad Prism from GraphPad Software (San Diego, Calif.). […]

FAK (PTK2) = FAK (PTK2) (Homo sapiens, UniProt Q05397); test: Mass spectral analysis of intact FAK after incubation with compound; format: binding; details: 1 hr, 10× excess of compound to protein; for modification of FAK (PTK2) by compound, mass spec: intact protein MALDI
Experimental: Intact FAK (PTK2) was incubated for 1 hr at a 10× fold access of compound IV-29 to protein. 3 ul aliquots of the samples were diluted with 10 ul of 0.1% TFA prior to micro C4 ZipTipping directly onto the MALDI target using Sinapinic acid as the desorption matrix (10 mg/ml in 0.1% TFA:Acetonitrile 50:50). Mass spec analysis was run on intact FAK (PTK2) protein (m/z 146,672 Da), and on FAK that was incubated with compound IV-29 (mw=669.2).

CKIT = test: cKIT washout assay in GIST882 cells (C-kit phosphorylation, western blot); format: cell-based
Experimental: GIST882 cells (See, Bauer et al., Cancer Research, 66(18):9153-9161 (2006)) were seeded in a 6 well plate at a density of 8×10^5 cells/well in complete media. The next day cells were treated with 1 uM compound diluted in complete media for 90 minutes. After 90 minutes, the media was removed and cells were washed with compound-free media. Cells were washed every 2 hours and resuspended in fresh compound-free media. Cells were collected at specified time points, lysed in Cell Extraction Buffer (Invitrogen FNN0011) supplemented with Roche complete protease inhibitor tablets (Roche 11697498001) and phosphatase inhibitors (Roche 04 906 837 001) and lysates were sheared by passing through a 28.5 gauge syringe 10 times each. Protein concentrations were measured and 10 ug total protein lysate was loaded in each lane. C-kit phosphorylation was assayed by western blot with pTyr (4G10) antibody and total kit antibody from Cell Signaling Technology.
Sorafenib and XVIII-11 were tested for cellular activity in a GIST882 cell line at 1 micromolar. The results are depicted in FIGS. 2a and 2b where it is shown that XVIII-11 maintained c-KIT enzyme inhibition in […] cells after “washout” for at least 8 hours. […] In order to understand whether there was a prolonged inhibition with the irreversible inhibitor the cells were washed free of compound. For the reversible inhibitor, Sorafenib, the inhibitory activity of cKIT and downstream signaling was overcome whereas the irreversible inhibition of XVIII-11 persisted for at least 8 hours.

ERK = test: cKIT washout assay, downstream signaling (ERK phosphorylation); format: cell-based; details: GIST882 cell line, 1 micromolar, 90 minutes
Experimental: The next day cells were treated with 1 uM compound diluted in complete media for 90 minutes. After 90 minutes, the media was removed and cells were washed with compound-free media. Cells were washed every 2 hours and resuspended in fresh compound-free media. […] Protein concentrations were measured and 10 ug total protein lysate was loaded in each lane. C-kit phosphorylation was assayed by western blot with pTyr (4G10) antibody and total kit antibody from Cell Signaling Technology.
Sorafenib and XVIII-11 were tested for cellular activity in a GIST882 cell line at 1 micromolar. The results are depicted in FIGS. 2a and 2b where it is shown that XVIII-11 maintained c-KIT enzyme inhibition in […] cells after “washout” for at least 8 hours. […] In order to understand whether there was a prolonged inhibition with the irreversible inhibitor the cells were washed free of compound.

FAK (PTK2), sequence (Q05397 whole entry): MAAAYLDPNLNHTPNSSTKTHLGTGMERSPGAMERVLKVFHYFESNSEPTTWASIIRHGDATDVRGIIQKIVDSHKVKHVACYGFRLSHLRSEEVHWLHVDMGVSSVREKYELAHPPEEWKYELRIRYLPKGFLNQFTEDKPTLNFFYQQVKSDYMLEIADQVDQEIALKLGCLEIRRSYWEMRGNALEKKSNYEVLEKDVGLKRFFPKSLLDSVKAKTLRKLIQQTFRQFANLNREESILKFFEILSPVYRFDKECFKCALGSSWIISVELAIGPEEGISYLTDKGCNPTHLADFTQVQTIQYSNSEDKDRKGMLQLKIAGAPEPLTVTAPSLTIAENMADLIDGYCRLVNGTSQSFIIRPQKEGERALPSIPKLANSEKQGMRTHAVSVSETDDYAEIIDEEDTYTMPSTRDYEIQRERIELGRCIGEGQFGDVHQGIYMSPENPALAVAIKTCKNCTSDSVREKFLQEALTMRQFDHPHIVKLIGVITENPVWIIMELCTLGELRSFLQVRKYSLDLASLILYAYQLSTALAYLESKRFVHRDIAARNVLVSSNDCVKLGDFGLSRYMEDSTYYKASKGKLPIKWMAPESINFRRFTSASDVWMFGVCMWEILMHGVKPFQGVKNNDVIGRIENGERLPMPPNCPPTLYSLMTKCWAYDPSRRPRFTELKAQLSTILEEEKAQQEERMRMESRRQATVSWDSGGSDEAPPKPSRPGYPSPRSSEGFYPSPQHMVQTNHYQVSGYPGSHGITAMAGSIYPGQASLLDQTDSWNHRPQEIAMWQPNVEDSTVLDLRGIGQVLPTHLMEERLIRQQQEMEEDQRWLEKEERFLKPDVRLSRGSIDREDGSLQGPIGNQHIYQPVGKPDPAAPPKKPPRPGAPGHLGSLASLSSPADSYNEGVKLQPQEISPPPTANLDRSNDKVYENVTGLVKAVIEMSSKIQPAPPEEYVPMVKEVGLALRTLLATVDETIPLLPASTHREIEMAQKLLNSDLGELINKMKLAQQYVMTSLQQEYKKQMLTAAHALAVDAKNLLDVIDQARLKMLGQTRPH
T1 sequence (Q05397 whole entry): as above

IC50 (FAK)	modification of FAK (PTK2) by compound, mass spec (FAK (PTK2))	positive shift of centroid mass of FAK (FAK (PTK2))	SMILES	inhibitory activity of cKIT and downstream signaling after washout (CKIT; 1 uM for 90 minutes, then washed free of compound)	inhibition of cKIT autophosphorylation (CKIT; GIST882 cell line, 1 micromolar, 90 minutes)	inhibition of downstream signaling of ERK (ERK)
5.89 nM	did not modify FAK		C=CC(=O)N1CCC2(CCCN(c3ccc(Nc4ncc(Cl)c(Nc5ccccc5C(=O)NC)n4)c(OC)c3)C2)CC1 [IV-30, 2-{2-[4-(9-Acryloyl-2,9-diaza-spiro[5.5]undec-2-yl)-2-methoxy-phenylamino]-5-chloro-pyrimidin-4-ylamino}-N-methyl-benzamide]			
			CNC(=O)c1cc(Oc2ccc(NC(=O)Nc3ccc(Cl)c(C(F)(F)F)c3)cc2)ccn1 [Sorafenib, sorafenib]	overcome	inhibited cKIT autophosphorylation	inhibited
5.24 nM	almost complete modification of FAK	about 365 Da	C=CC(=O)Nc1ccc(C(=O)NC2(C)CCN(c3ccc(Nc4ncc(Cl)c(Nc5ccccc5C(=O)NC)n4)c(OC)c3)CC2)cc1 [IV-29, 2-(2-(4-(4-(4-acrylamidobenzamido)-4-methylpiperidin-1-yl)-2-methoxyphenylamino)-5-chloropyrimidin-4-ylamino)-N-methylbenzamide]			
